Patent publication US20030224942A1, “Alkylamino-1,3,5-triazines, processes for their preparation and their use as herbicides and plant growth regulators” (priority 2001, published 2003)

What was measured:
[1] = test system: Cyperus spp., Echinochloa spp., Digitaria spp., Sagitaria spp. and Scirpus spp.; test: Action on harmful plants in rice (paddy rice conditions, visual scoring); type: in vivo, typical rice weeds (gramineous and broad-leaved); settings: applied into the dammed water, visual scoring about three weeks after application
Source text: Transplanted and sown rice and also typical rice weeds (gramineous and broad-leaved) are cultivated in closed plastic pots in a greenhouse to the three-leaf stage (Echinochloa crus-galli 1.5-leaf) under paddy rice conditions (dammed height of water: 2-3 cm). This is followed by treatment with the compounds according to the invention. […] After this treatment, the test plants are set up in a greenhouse under optimum growth conditions and are maintained in this way throughout the test period.

[2] = test system: Chenopodium spp., Papaver spp., Polygonum spp., Veronica spp. or Viola spp.; test: Post-emergence effect on weeds (greenhouse pot test, visual scoring); type: in vivo, monocotyledonous and dicotyledonous weeds; settings: treated at three-leaf stage; visual scoring after about 3 to 4 weeks; application rate of 0.5 kg and less of active substance per hectare

Structure (SMILES) | herbicidal activity against harmful plants which are typical for rice crops [1] | herbicidal activity post-emergence against harmful plants [2]
CC(C)(F)c1nc(N)nc(NCc2ccc(C3CC3)cc2)n1 [Product P16.1604] | very good herbicidal activity | very good herbicidal activity
C#Cc1cc(C(Nc2nc(N)nc(CC)n2)C2CC2)ccc1F (stereo not shown) [Product P9.309] | very good herbicidal activity | very good herbicidal activity
CC#Cc1c(F)cc(C(C)Nc2nc(N)nc(C(C)F)n2)cc1F (stereo not shown) [Product P22.428] | very good herbicidal activity | very good herbicidal activity
CCCCC#Cc1cc(C(C)Nc2nc(N)nc(C(C)(C)F)n2)ccc1F (stereo not shown) [Product P17.688] | very good herbicidal activity | very good herbicidal activity
CC(Nc1nc(N)nc(C(C)(C)F)n1)c1cccc(C2CC2)c1 (stereo not shown) [Product P17.1603] | very good herbicidal activity | very good herbicidal activity
C#Cc1cc(C(C)Nc2nc(N)nc(C(C)F)n2)ccc1F (stereo not shown) [Product P22.309] | very good herbicidal activity | very good herbicidal activity
CC(F)c1nc(N)nc(NC(c2cccc(C3CC3)c2)C2CC2)n1 (stereo not shown) [Product P24.1603] | very good herbicidal activity | very good herbicidal activity
CC(O)C#Cc1ccc(C(C)Nc2nc(N)nc(C(C)F)n2)cc1 (stereo not shown) [Product P22.1601] | very good herbicidal activity | very good herbicidal activity
Cc1nc(N)nc(NC(C)c2ccc(F)c(C3CC3)c2)n1 (stereo not shown) [Product P2.916] | very good herbicidal activity | very good herbicidal activity
C#Cc1ccc(C(C)Nc2nc(N)nc(C(C)F)n2)cc1C (stereo not shown) [Product P22.335] | very good herbicidal activity | very good herbicidal activity
CCC(F)c1nc(N)nc(NC(C)c2cc(F)c(C3CC3)c(F)c2)n1 (stereo not shown) [Product P27.960] | very good herbicidal activity | very good herbicidal activity
CC#Cc1cccc(CNc2nc(N)nc(CC)n2)c1 [Product P6.1582] | very good herbicidal activity | very good herbicidal activity
C=C=Cc1c(F)cc(C(C)Nc2nc(N)nc(CC)n2)cc1F (stereo not shown) [Product P7.656] | very good herbicidal activity | very good herbicidal activity
CC(Nc1nc(N)nc(C(C)(C)F)n1)c1cccc(C(F)=C(F)F)c1 (stereo not shown) [Product P17.1567] | very good herbicidal activity | very good herbicidal activity
Cc1nc(N)nc(NC(C)c2ccc(F)c(C(F)=C(F)F)c2)n1 (stereo not shown) [Product P2.5] | very good herbicidal activity | very good herbicidal activity
CCC(F)c1nc(N)nc(NCc2cc(F)c(C3CC3)c(F)c2)n1 (stereo not shown) [Product P26.960] | very good herbicidal activity | very good herbicidal activity
CCc1nc(N)nc(NC(C)c2cccc(C(F)=C(F)F)c2)n1 (stereo not shown) [Product P7.1567] | very good herbicidal activity | very good herbicidal activity
CCc1nc(N)nc(NCc2cccc(C(F)=C(F)F)c2)n1 [Product P6.1567] | very good herbicidal activity | very good herbicidal activity
CC(F)c1nc(N)nc(NCc2ccc(C3CC3)cc2)n1 (stereo not shown) [Product P21.1604] | very good herbicidal activity | very good herbicidal activity
CC(F)c1nc(N)nc(NCc2ccc(F)c(C(F)=C(F)F)c2)n1 (stereo not shown) [Product P21.5] | very good herbicidal activity | very good herbicidal activity
CC(C)c1nc(N)nc(NCc2ccc(C(F)=C(F)F)cc2)n1 [Product P11.1568] | very good herbicidal activity | very good herbicidal activity

Structure (SMILES) | herbicidal activity against harmful plants which are typical for rice crops [1] | herbicidal activity post-emergence against harmful plants [2]
C#Cc1cccc(C(Nc2nc(N)nc(C(C)C)n2)C2CC2)c1 (stereo not shown) [Product P14.1579] | very good herbicidal activity | very good herbicidal activity
CC(C)c1nc(N)nc(NC(c2ccc(C3CC3)cc2)C2CC2)n1 (stereo not shown) [Product P14.1604] | very good herbicidal activity | very good herbicidal activity
C#Cc1ccc(C(C)Nc2nc(N)nc(C(C)F)n2)cc1 (stereo not shown) [Product P22.1580] | very good herbicidal activity | very good herbicidal activity
CC#Cc1cc(C(Nc2nc(C)nc(N)n2)C2CC2)ccc1F (stereo not shown) [Product P4.384] | very good herbicidal activity | very good herbicidal activity
CC#Cc1ccc(CNc2nc(N)nc(C(C)C)n2)cc1 [Product P11.1583] | very good herbicidal activity | very good herbicidal activity
CCC(F)c1nc(N)nc(NCc2cccc(C(F)=C(F)F)c2)n1 (stereo not shown) [Product P26.1567] | very good herbicidal activity | very good herbicidal activity
CCc1nc(N)nc(NC(C)c2ccc(C(F)=C(F)F)cc2)n1 (stereo not shown) [Product P7.1568] | very good herbicidal activity | very good herbicidal activity
CCC(F)c1nc(N)nc(NC(C)c2ccc(F)c(C3CC3)c2)n1 (stereo not shown) [Product P27.916] | very good herbicidal activity | very good herbicidal activity
CC#Cc1cccc(C(C)Nc2nc(N)nc(C(F)CC)n2)c1 (stereo not shown) [Product P27.1582] | very good herbicidal activity | very good herbicidal activity
CC#Cc1cc(CNc2nc(N)nc(C(C)F)n2)ccc1F (stereo not shown) [Product P21.384] | very good herbicidal activity | very good herbicidal activity
C#Cc1ccc(C(C)Nc2nc(N)nc(CC)n2)cc1C (stereo not shown) [Product P7.335] | very good herbicidal activity | very good herbicidal activity
Cc1nc(N)nc(NCc2ccc(F)c(C(F)=C(F)F)c2)n1 [Product P1.5] | very good herbicidal activity | very good herbicidal activity
CC#Cc1cccc(C(Nc2nc(C)nc(N)n2)C2CC2)c1 (stereo not shown) [Product P4.1582] | very good herbicidal activity | very good herbicidal activity
CC#Cc1c(F)cc(C(Nc2nc(N)nc(C(F)CC)n2)C2CC2)cc1F (stereo not shown) [Product P29.428] | very good herbicidal activity | very good herbicidal activity
CC#Cc1c(C)cc(C(C)Nc2nc(N)nc(C(C)(C)F)n2)cc1C (stereo not shown) [Product P17.424] | very good herbicidal activity | very good herbicidal activity
CC#Cc1ccc(CNc2nc(N)nc(C(C)F)n2)cc1 (stereo not shown) [Product P21.1583] | very good herbicidal activity | very good herbicidal activity
CC#Cc1cccc(C(Nc2nc(N)nc(C(C)F)n2)C2CC2)c1 (stereo not shown) [Product P24.1582] | very good herbicidal activity | very good herbicidal activity
CC#Cc1cc(C(C)Nc2nc(N)nc(C(C)(C)F)n2)ccc1F (stereo not shown) [Product P17.384] | very good herbicidal activity | very good herbicidal activity
C#Cc1c(F)cc(C(C)Nc2nc(N)nc(C(C)(C)F)n2)cc1F (stereo not shown) [Product P17.352] | very good herbicidal activity | very good herbicidal activity
CC#Cc1cccc(C(C)Nc2nc(N)nc(C(C)(C)F)n2)c1 (stereo not shown) [Product P17.1582] | very good herbicidal activity | very good herbicidal activity
